Here are results for 3 compounds from patent US20240197755A1, “Pharmaceutical composition for use in the therapeutic treatment of cancer and complications of cancer” (priority 2016, published 2024).

In data set [1] the test system is HCCLM3 cells. Conditions: cited from earlier work.
The subject of data set [2] is Hep3B (hepatocellular carcinoma). Briefly: Antiproliferative effect on Hep3B cell line, 72 h exposure. Conditions: 72 hours of exposure. In kind it is cell-based, human. The text has this: (§1) Different human Hep3B (hepatocellular carcinoma), MCF-7 (breast cancer), DU-145 (prostate cancer) cell lines were studied. They were selected on the basis of their ability to overexpress at least one protein from among reptin, pontin, and survivin. The stromal cells were also studied in order to determine the impact of the composition according to the invention in the tumor microenvironment. These cells were maintained in DMEM and supplemented with 10% fetal bovine serum (FBS) and 1% antibiotic-antimycotic solution (MSP) containing penicillin, streptomycin, and amphotericin B under standard growth conditions (5% CO2, 37° C., humidified atmosphere). The compositions above were dissolved and diluted in DMSO.
(§2) The cells above were treated with increasing solutions for 72 h in complete cell media. All treatment and control protocols were prepared as described previously.

Data set [3] concerns DU-145 (prostate cancer). As to the kind of experiment: Antiproliferative effect on DU-145 cell line, 72 h exposure. In kind it is cell-based, human. Conditions: DU-145, 72 hours of exposure.
Text: as §1, §2

The subject of data set [4] is MCF-7 (breast cancer). Briefly: Antiproliferative effect on MCF-7 cell line, 72 h exposure. In kind it is cell-based, human. Conditions: MCF-7, 72 hours of exposure.
Text: as §1, §2

For data set [5] the following is noted: rats, oral, 50 mg/kg, 18 consecutive days; cited from earlier work.
Data set [6] has as its system U251/AMD cells. Conditions: cited from earlier work.

Each structure is given as a SMILES string.

Regarding `C=C(C)[C@@H]1CC[C@]2(C)CC[C@]3(C)[C@H](CC[C@@H]4[C@@]5(C)CC[C@H](O)C(C)(C)[C@@H]5CC[C@]43C)[C@@H]12` [lupeol], in data set [1] (HCCLM3 cells), the “expression of the BDNF protein” value was “marked decrease”. Also, the “cell proliferation of HCCLM3 cells” value in data set [1] (as a function of concentration and time) is “inhibits cell proliferation”. The antiproliferative effect result in data set [2], in data set [3] and in data set [4] was “more pronounced antiproliferative effect” throughout. Moreover, the “mortality and systemic toxicity” value in data set [5] is given as “neither mortality nor systemic toxicity”.
On to `C=C[C@]1(C)CC[C@@H](C(=C)C)C[C@H]1C(=C)C` [Composition 13-elemene, beta-elemene], for which, in data set [6] (AMD, with beta-elemene), the “IC50 of U251/AMD cells” value was 0.051 mg/L. Moreover, in data set [6] (U251/AMD cells), the “intracellular accumulation of AMD” value is recorded as “increases the intracellular accumulation of AMD”.
On to `O=CC=Cc1ccccc1O` [2-hydroxycinnamaldehyde], for which the antiproliferative effect entry in data set [2], in data set [3] and in data set [4] was “more pronounced antiproliferative effect” in each case.
